Assay results from patent US7855192B2, “Macrolactams by engineered biosynthesis” (Kosan Biosciences, Inc., priority 2007, dated 2010).
pIC50: −log10 of the molar value. Where two headings read alike, the source gives them in different places.

Legend:
SKBr3 = assay: cells; conditions: Homo sapiens
Description: (§1) The ability of the macrolactams of this invention to inhibit the growth of cancer cells was evaluated using the procedure of Patel, supra. […] SKOV3 is a human ovarian cancer cell line. […] MV-4-11 is yet another human leukemia cell line (acute myeloid leukemia or AML). […] Where an assay was performed multiple times, the range of values measured is given.

HCT-116 = assay: cells; conditions: Homo sapiens, HCT-116, read-out: Inhibitory activity against cancer cells IC50
Description: as §1

COLO 205 = assay: cells; conditions: Homo sapiens, COLO 205, read-out: Inhibitory activity against cancer cells IC50
Description: as §1

SKOV3 = assay: cells; conditions: Homo sapiens, SK-OV-3, read-out: Inhibitory activity against cancer cells IC50
Description: as §1

HT-29 = assay: cells; conditions: Homo sapiens, HT-29, read-out: Inhibitory activity against cancer cells IC50
Description: as §1

MCF-7 = assay: cells; conditions: Homo sapiens
Description: as §1

Hsp70 = assay: Induction of Hsp70 in SKBr3 cells as marker of Hsp90 inhibition; assay type: cell-based, human; conditions: SKBr3 cells continuously exposed to 1 μM test compound
Description: The activity of macrolactams of this invention as Hsp90 inhibitors was confirmed by monitoring the effect of exposure to them on an Hsp90 client protein and a protein induced upon Hsp90 inhibition. […]. The procedure used was that described in Munster et al., Cancer Research 2002, 62, 3132-3137.
[…]. Heat shock protein-70 (“Hsp70”), another protein that performs a chaperone function, is a protein that is induced upon inhibition of Hsp90 (Brodsky & Chiosis, Curr. Topics Med. Chem. 2006, 6 (11), 1215-1225). Thus, the induction of Hsp70 can be used as a marker for the inhibition of Hsp90. […]. GAPDH is an enzyme involved in glycolysis and is expressed constitutively in all cells and is a marker of choice as a loading control in Western Blotting experiments.)

MDA-468 = assay: cells; conditions: read-out: Inhibitory Concentration IC50, NQO1 deficient cancer cells
Description: as §1
(§2) As noted above, geldanamycin derivatives in the quinone oxidation state are dependent on the enzyme NQO1 to reduce them to their hydroquinone derivatives for enhanced activity as Hsp90 inhibitors. However, some cancer cells are deficient in NQO1 activity and thus unable to effect the quinone-to-hydroquinone conversion.

NCI-H596 = assay: cells; conditions: Homo sapiens, NCI-H596, read-out: Inhibitory Concentration IC50, NQO1 deficient cancer cells
Description: as §1, §2

BT-474 = assay: cells; conditions: Homo sapiens, BT-474, read-out: Inhibitory activity against cancer cells IC50
Description: as §1

MX-1 = assay: cells; conditions: Homo sapiens, MX1, read-out: Inhibitory activity against cancer cells IC50
Description: as §1

NCI-ADR = assay: cells; conditions: Homo sapiens, NCI/ADR-RES, read-out: Inhibitory activity against cancer cells IC50
Description: as §1

K-562 = assay: cells; conditions: Homo sapiens, K562, read-out: Inhibitory activity against cancer cells IC50
Description: as §1

RPMI-8226 = assay: cells; conditions: Homo sapiens, RPMI-8226, read-out: Inhibitory activity against cancer cells IC50
Description: as §1

[1] = test system: SKBr3 and MCF7 cancer cells; conditions: with versus without dicoumarol (NQO1 inhibitor)
MV-4-11 = assay: cells; conditions: Homo sapiens, MV4-11, read-out: Inhibitory activity against cancer cells IC50
Description: as §1

[2] = SK-BR-3, read-out: Inhibitory activity against cancer cells IC50
[3] = MCF7, read-out: Inhibitory activity against cancer cells IC50
[4] = SK-BR-3, read-out: Inhibitory Activity IC50, no dicoumarol added

SMILES | pIC50 (SKBr3; [2]) | pIC50 (HCT-116) | pIC50 (COLO 205) | pIC50 (SKOV3) | pIC50 (HT-29) | pIC50 (MCF-7; [3]) | Induction of Hsp70, gel picture FIG. 5 (Hsp70) | pIC50 (MDA-468) | pIC50 (NCI-H596) | pIC50 (BT-474) | pIC50 (MX-1) | pIC50 (NCI-ADR) | pIC50 (K-562) | pIC50 (RPMI-8226) | Change of Hsp90 inhibitory activity in the presence of dicoumarol [1] | pIC50 (SKBr3; [4]) | pIC50 (SKBr3; SK-BR-3, read-out: Inhibitory Activity IC50, dicoumarol added) | pIC50 (MV-4-11) | pIC50 (MCF-7; MCF7, read-out: Inhibitory Activity IC50, dicoumarol added) | pIC50 (MCF-7; MCF7, read-out: Inhibitory Activity IC50, no dicoumarol added)
CO[C@H]1/C=C\C=C(/C)C(=O)Nc2ccc(O)c(c2)C[C@@H](C)C[C@H](OC)[C@H](O)[C@@H](C)/C=C(\C)[C@@H]1OC(N)=O [IV-a] | 7.05 | 6.75 | – | – | – | – | – | – | – | – | – | – | – | – | – | – | – | – | – | –
CO[C@H]1C[C@H](C)Cc2cccc(c2)NC(=O)/C(C)=C/CC[C@H](OC)[C@@H](OC(N)=O)/C(C)=C/[C@H](C)[C@H]1O [III-h] | 6.96 to 7.05 | 6.62 | 6.74 | 6.50 | 6.66 | 6.85 to 6.86 | – | – | – | – | – | – | – | – | – | – | – | – | – | –
C=CCNC1=C2C[C@@H](C)C[C@H](OC)[C@H](O)[C@@H](C)/C=C(\C)[C@H](OC(N)=O)[C@@H](OC)/C=C\C=C(/C)C(=O)NC(=CC1=O)C2=O [Compound 17-AAG, 17-allylamino-17-demethoxygeldanamycin, reference compound] | – | – | – | – | – | – | Hsp70 was induced | – | – | – | – | – | – | – | – | – | – | – | – | –
CO[C@H]1/C=C\C=C(/C)C(=O)Nc2cc(Cl)c(O)c(c2O)C[C@@H](C)C[C@H](OC)[C@H](O)[C@@H](C)/C=C(\C)[C@@H]1OC(N)=O [IV-b] | 6.35 to 6.40 | 6.08 | – | 6.44 to 6.47 | – | – | – | 6.35 | 6.09 | 6.85 | 6.36 | 5.00 | 5.85 | 6.62 | – | – | – | – | – | –
CO[C@H]1C[C@H](C)Cc2cc(ccc2O)NC(=O)/C(C)=C/CC[C@H](OC)[C@@H](OC(N)=O)/C(C)=C/[C@H](C)[C@H]1O [III-i] | 6.08 | 5.96 | – | – | – | 6.22 | – | – | – | – | – | – | – | – | – | – | – | – | – | –
CO[C@H]1C[C@H](C)Cc2cc(cc(Cl)c2O)NC(=O)/C(C)=C/CC[C@H](OC)[C@@H](OC(N)=O)/C(C)=C/[C@H](C)[C@H]1O [III-a] | 6.84 to 7.44 | – | – | 6.77 to 6.99 | – | 7.22 to 7.28 | Hsp70 was induced | 7.05 | – | 7.24 | 7.38 | 5.85 to 6.19 | 7.13 | 7.38 | remained substantially unchanged | 7.41 | – | – | – | –
COC1CC/C=C(\C)C(=O)Nc2cc(F)c(O)c(c2)C[C@@H](C)C[C@H](OC)[C@H](O)[C@@H](C)/C=C(\C)[C@@H]1OC(N)=O (stereo partly drawn) [III-d] | 7.10 to 7.47 | 6.54 to 6.55 | 7.42 | 6.63 to 6.64 | 6.96 | 6.80 to 7.14 | Hsp70 was induced | 7.00 | 6.51 | 7.10 | 7.18 | 5.30 to 5.49 | 6.54 | 7.18 | remained substantially unchanged | 7.38 | 7.16 | 7.49 to 7.51 | 6.79 | 6.95
